Assay results taken from the supplement of paper PMC10307832.

What was measured:
Experiment in all cases: relative viability (nuclei count vs DMSO), 5 days (fraction); higher = more cells survive
Omipalisib + Palbociclib = compound: COc1ncc(-c2ccc3nccc(-c4ccnnc4)c3c2)cc1NS(=O)(=O)c1ccc(F)cc1F [Omipalisib] + CC(=O)c1c(C)c2cnc(Nc3ccc(N4CCNCC4)cn3)nc2n(C2CCCC2)c1=O [Palbociclib] (partner 0.5 µM)
Summary of the method: (§1)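 Lung cancer cell lines in 1536-well plates were dosed by pin tool the day after seeding, either with one drug alone or with a fixed anchor-drug dose plus five library-drug doses (not always all listed) in √10 steps. After 5 days, cells were fixed and their nuclei stained in one step (final 0.05% Triton X-100, 1% formaldehyde, 1 ug/ml Hoechst), then counted on 4× images. Relative viability is the nuclei count in treated wells divided by that in vehicle wells. Values are medians of duplicate plates.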

Omipalisib + Luminespib = compound: COc1ncc(-c2ccc3nccc(-c4ccnnc4)c3c2)cc1NS(=O)(=O)c1ccc(F)cc1F [Omipalisib] + CCNC(=O)c1noc(-c2cc(C(C)C)c(O)cc2O)c1-c1ccc(CN2CCOCC2)cc1 [Luminespib] (partner 0.01 µM)
Summary of the method: as §1

Omipalisib + Pictilisib = compound: COc1ncc(-c2ccc3nccc(-c4ccnnc4)c3c2)cc1NS(=O)(=O)c1ccc(F)cc1F [Omipalisib] + CS(=O)(=O)N1CCN(Cc2cc3nc(-c4cccc5[nH]ncc45)nc(N4CCOCC4)c3s2)CC1 [Pictilisib] (partner 1 µM)
Summary of the method: as §1

Omipalisib + Dasatinib = compound: COc1ncc(-c2ccc3nccc(-c4ccnnc4)c3c2)cc1NS(=O)(=O)c1ccc(F)cc1F [Omipalisib] + Cc1nc(Nc2ncc(C(=O)Nc3c(C)cccc3Cl)s2)cc(N2CCN(CCO)CC2)n1 [Dasatinib] (partner 0.075 µM)
Summary of the method: as §1

Omipalisib + Phenformin = compound: COc1ncc(-c2ccc3nccc(-c4ccnnc4)c3c2)cc1NS(=O)(=O)c1ccc(F)cc1F [Omipalisib] + N=C(N)NC(=N)NCCc1ccccc1 [Phenformin] (partner 250 µM)
Summary of the method: as §1

Omipalisib + Vorinostat = compound: COc1ncc(-c2ccc3nccc(-c4ccnnc4)c3c2)cc1NS(=O)(=O)c1ccc(F)cc1F [Omipalisib] + O=C(CCCCCCC(=O)Nc1ccccc1)NO [Vorinostat] (partner 1 µM)
Summary of the method: as §1

Row | Cell Line | relative viability (Omipalisib + Palbociclib; first compound 0.0003 µM) | relative viability (Omipalisib + Palbociclib; first compound 0.003 µM) | relative viability (Omipalisib + Palbociclib; first compound 0.03 µM) | relative viability (Omipalisib + Luminespib; first compound 0.0003 µM) | relative viability (Omipalisib + Luminespib; first compound 0.003 µM) | relative viability (Omipalisib + Luminespib; first compound 0.03 µM) | relative viability (Omipalisib + Pictilisib; first compound 0.0003 µM) | relative viability (Omipalisib + Pictilisib; first compound 0.003 µM) | relative viability (Omipalisib + Pictilisib; first compound 0.03 µM) | relative viability (Omipalisib + Dasatinib; first compound 0.0003 µM) | relative viability (Omipalisib + Dasatinib; first compound 0.003 µM) | relative viability (Omipalisib + Dasatinib; first compound 0.03 µM) | relative viability (Omipalisib + Phenformin; first compound 0.0003 µM) | relative viability (Omipalisib + Phenformin; first compound 0.003 µM) | relative viability (Omipalisib + Phenformin; first compound 0.03 µM) | relative viability (Omipalisib + Vorinostat; first compound 0.0003 µM) | relative viability (Omipalisib + Vorinostat; first compound 0.003 µM) | relative viability (Omipalisib + Vorinostat; first compound 0.03 µM)
1 | NCI-H2228 | 0.839 | 0.47 | 0.234 | 0.131 | 0.0865 | 0.11 | 0.41 | 0.265 | 0.407 | 0.43 | 0.275 | 0.133 | 0.258 | 0.142 | 0.122 | 0.75 | 0.498 | 0.162
2 | LCLC-103H | 0.481 | 0.479 | 0.356 | 0.999 | 0.714 | 0.427 | 0.615 | 0.665 | 0.531 | 0.467 | 0.326 | 0.167 | 0.319 | 0.29 | 0.174 | 0.848 | 0.554 | 0.43
3 | 201T | 0.325 | 0.343 | 0.27 | 0.95 | 1.05 | 0.463 | 0.706 | 0.668 | 0.554 | 0.582 | 0.413 | 0.323 | 0.47 | 0.421 | 0.338 | 1.01 | 0.855 | 0.453
4 | NCI-H1792 | 0.636 | 0.424 | 0.27 | 0.328 | 0.41 | 0.184 | 0.281 | 0.278 | 0.129 | 0.566 | 0.521 | 0.21 | 0.351 | 0.115 | 0.0784 | – | – | –
5 | LXF-289 | 0.62 | 0.574 | 0.416 | 0.536 | 0.456 | 0.232 | 0.772 | 0.684 | 0.671 | 0.235 | 0.119 | 0.0562 | 0.505 | 0.416 | 0.396 | 0.771 | 0.905 | 0.561
6 | LCLC-97TM1 | 0.202 | 0.14 | 0.0751 | 0.692 | 0.511 | 0.202 | 0.181 | 0.15 | 0.166 | 0.883 | 0.74 | 0.472 | 0.38 | 0.338 | 0.159 | 0.728 | 0.378 | 0.179
7 | NCI-H1395 | 0.623 | 0.563 | 0.464 | 0.622 | 0.662 | 0.418 | 0.92 | 0.516 | 0.585 | 0.417 | 0.362 | 0.348 | 0.414 | 0.403 | 0.393 | 0.716 | 0.525 | 0.523
8 | CAL-12T | 0.533 | 0.415 | 0.142 | 0.319 | 0.194 | 0.107 | 0.579 | 0.524 | 0.385 | 0.53 | 0.241 | 0.0952 | 0.543 | 0.573 | 0.361 | 0.666 | 0.386 | 0.34
9 | NCI-H1975 | 0.669 | 0.248 | 0.173 | 0.142 | 0.194 | 0.2 | 0.321 | 0.277 | 0.193 | 0.33 | 0.249 | 0.113 | 0.412 | 0.292 | 0.162 | 0.702 | 0.458 | 0.276
10 | EKVX | 0.301 | 0.326 | 0.182 | 0.859 | 0.717 | 0.423 | 0.45 | 0.434 | 0.393 | 0.398 | 0.302 | 0.175 | 0.228 | 0.254 | 0.15 | 0.709 | 0.588 | 0.256
11 | NCI-H1437 | 0.363 | 0.307 | 0.218 | 1.15 | 1.02 | 0.926 | 0.436 | 0.308 | 0.319 | 0.411 | 0.323 | 0.202 | 0.334 | 0.249 | 0.333 | 0.948 | 0.75 | 0.448
12 | RERF-LC-KJ | 1.04 | 0.846 | 0.555 | 1.15 | 1.13 | 0.688 | 0.488 | 0.463 | 0.397 | 0.757 | 0.509 | 0.407 | 0.416 | 0.371 | 0.28 | 0.627 | 0.52 | 0.424
13 | NCI-H1755 | 0.428 | 0.421 | 0.362 | 0.445 | 0.292 | 0.375 | 0.426 | 0.353 | 0.344 | 0.445 | 0.271 | 0.236 | 0.625 | 0.522 | 0.457 | 0.747 | 0.738 | 0.517
14 | NCI-H1793 | 0.243 | 0.215 | 0.15 | 0.19 | 0.159 | 0.159 | 0.348 | 0.344 | 0.293 | 0.331 | 0.279 | 0.273 | 0.372 | 0.22 | 0.188 | 0.649 | 0.438 | 0.231
15 | HCC-366 | 0.329 | 0.202 | 0.0493 | – | – | – | 0.137 | 0.1 | 0.0924 | 0.575 | 0.2 | 0.179 | 0.625 | 0.263 | 0.181 | 0.394 | 0.223 | 0.113
16 | HCC-78 | 0.48 | 0.411 | 0.414 | – | – | – | 0.198 | 0.183 | 0.189 | 0.359 | 0.313 | 0.219 | 0.683 | 0.571 | 0.282 | 0.334 | 0.337 | 0.246
17 | HCC-44 | 0.962 | 0.962 | 0.879 | 1.08 | 1.09 | 0.295 | 0.579 | 0.464 | 0.441 | – | – | – | 0.202 | 0.141 | 0.102 | 1.12 | 1.18 | 0.559
18 | SW 900 | 0.522 | 0.444 | 0.278 | 0.189 | 0.171 | 0.166 | – | – | – | 0.568 | 0.293 | 0.211 | 0.513 | 0.321 | 0.424 | 0.523 | 0.484 | 0.316
